The record followed here is patent US4594342A, “1,5-benzothiazepine derivative” (priority 1984, dated 1986).

The test system of assay [1] is rat platelets. Put plainly: Inhibitory effect ex vivo on collagen-induced platelet aggregation of rat platelets after oral administration (Experiment 2). As to conditions: 10 mg/kg orally, Sprague-Dawley rats fasted about 20 hours, blood 3 hours after administration. Type of assay: in vivo. As to the method: A test compound solution (Dose: 10 mg/kg) was orally administered to Sprague-Dawley rats fasted for about 20 hours. Three hours after administration, blood was collected from the abdominal aorta of the rats. […] The bottom layer was further centrifuged to give platelet-poor plasma ("PPP") as the supernatant solution. PRP was diluted with PPP so that the blood platelet counts were 0.8-1×10^6 /mm^3.

Another assay concerns Human platelets. Put plainly: Inhibitory effects in vitro on collagen-induced platelet aggregation of human platelets (Experiment 1). Type of assay: cell-based. As to conditions: human PRP, 37° C., read-out: IC50 (concentration of test compound required to induce 50% inhibition of collagen-induced platelet aggregation). An excerpt: (§1) (Inhibitory effects in vitro on collagen-induced platelet aggregation of rat or human platelets)
(§2) The bottom layer was further centrifuged to give platelet-poor plasma ("PPP") as the supernatant solution. Platelet counts were adjusted to about 0.8-1×10^6 /mm^3 for rat PRP and about 4×10^5 /mm^3 for human PRP by dilution with PPP.

For assay [2], the system named is Rat platelets. As to the kind of experiment: Inhibitory effects in vitro on collagen-induced platelet aggregation of rat platelets (Experiment 1). As to conditions: rat PRP, 37° C., read-out: IC50 (concentration of test compound required to induce 50% inhibition of collagen-induced platelet aggregation). It is filed as cell-based.
Description: as §1, §2

Where a name gives a salt, the structure may show the parent alone.

With `CNCCN1C(=O)[C@H](O)[C@H](c2ccc(OC)cc2)Sc2cc(C)ccc21.Cl` (racemic) [(±)-cis-2-(4-methoxyphenyl)-3-hydroxy-5-[2-(N-methylamino)ethyl]-8-methyl-2,3-dihydro-1,5-benzothiazepin-4(5H)-one hydrochloride], the Platelet aggregation-inhibiting activity result in the assay with rat platelets [1] was “++ ((++) if the percentage inhibition is not less than 50%)”.
Turning to `Br.CNCCN1C(=O)[C@H](O)[C@H](c2ccc(C)cc2)Sc2ccccc21` (racemic) [(±)-cis-2-(4-methylphenyl)-3-hydroxy-5-[2-(N-methylamino)ethyl]-2,3-dihydro-1,5-benzothiazepin-4(5H)-one hydrobromide], the IC50 in the assay with Human platelets was 0.3 µg/mL.
For the compound `CNCCN1C(=O)[C@H](O)[C@H](c2ccc(OC)cc2)Sc2cc(O)ccc21` (relative stereo) [(±)-cis-2-(4-methoxyphenyl)-3,8-dihydroxy-5-[2-(N--methylamino)ethyl]-2,3-dihydro-1,5-benzothiazepin-4(5H)--one hydrochloride], the Platelet aggregation-inhibiting activity entry with rat platelets [1] is given as “++ ((++) if the percentage inhibition is not less than 50%)”.
On the same count and under the same terms, as for `CNCCN1C(=O)[C@H](OC(C)=O)[C@H](c2ccc(OC)cc2)Sc2cc(C)ccc21` (relative stereo) [(±)-cis-2-(4-methoxyphenyl)-3-acetoxy-5-[2-(N-methylamino)ethyl]-8-methyl-2,3-dihydro-1,5-benzothiazepin-4(5H)-one hydrochloride. 1/2H2 O.1/2C2 H5 OH], the entry is “++ ((++) if the percentage inhibition is not less than 50%)”.
In the case of `CNCCN1C(=O)[C@H](OC(C)=O)[C@H](c2ccc(C)cc2)Sc2cc(OC)ccc21` (relative stereo) [(±)-cis-2-(4-methylphenyl)-3-acetoxy-5-[2-(N--methylamino)ethyl]-8-methoxy-2,3-dihydro-1,5-benzothiazepin-4(5H)--one oxalate], the IC50 in the assay with Human platelets was 0.5 µg/mL.
For `CNCCN1C(=O)[C@H](OC(C)=O)[C@H](c2ccc(C)cc2)Sc2cc(C)ccc21` (relative stereo) [(±)-cis-2-(4-methylphenyl)-3-acetoxy-5-[2-(N--methylamino)ethyl]-8-methyl-2,3-dihydro-1,5-benzothiazepin-4(5H)--one hydrochloride], in the assay with Rat platelets [2], the IC50 amounted to 0.5 µg/mL. In addition, the Platelet aggregation-inhibiting activity entry with rat platelets [1] was “++ ((++) if the percentage inhibition is not less than 50%)”.
For the compound `CNCCN1C(=O)[C@H](O)[C@H](c2ccc(C)cc2)Sc2cc(OC)ccc21` (relative stereo) [(±)-cis-2-(4-methylphenyl)-3-hydroxy-5-[2-(N--methylamino)ethyl]-8-methoxy-2,3-dihydro-1,5-benzothiazepin-4(5H)--one hydrochloride], the IC50 is 0.3 to 1 µg/mL in the assay with Rat platelets [2] and 0.5 µg/mL in the assay on Human platelets.
As for `CNCCN1C(=O)[C@H](O)[C@H](c2ccc(C)cc2)Sc2cc(C)ccc21` (relative stereo) [(±)-cis-2-(4-methylphenyl)-3-hydroxy-5-[2-(N--methylamino)ethyl]-8-methyl-2,3-dihydro-1,5-benzothiazepin-4(5H)--one hydrochloride], the IC50 with Human platelets was 0.3 µg/mL. The Platelet aggregation-inhibiting activity entry in the assay on rat platelets [1] is reported as “++ ((++) if the percentage inhibition is not less than 50%)”.
On to `CNCCN1C(=O)[C@H](O)[C@H](c2ccc(C)cc2)Sc2cc(C)ccc21` (relative stereo) [(±)-cis-2-(4-methylphenyl)-3-hydroxy-5-[2-(N--methylamino)ethyl]-8-methyl-2,3-dihydro-1,5-benzothiazepin-4(5H)--one sulfate], for which the IC50 with Rat platelets [2] was 0.1 to 0.3 µg/mL.
Regarding `CNCCN1C(=O)[C@H](OC(C)=O)[C@H](c2ccc(OC)cc2)Sc2cc(C)ccc21.O=C(O)C(=O)O` (single isomer, unassigned) [(-)-cis-2-(4-methoxyphenyl)-3-acetoxy-5-[2-(N-methylamino)ethyl]-8-methyl-2,3-dihydro-1,5-benzothiazepin-4(5H)-one oxalate], the Platelet aggregation-inhibiting activity entry with rat platelets [1] is “++ ((++) if the percentage inhibition is not less than 50%)”.
The same measure, in the same setting: in the case of `CNCCN1C(=O)[C@H](O)[C@H](c2ccc(OC)cc2)Sc2cc(C)ccc21` (single isomer, unassigned) [(-)-cis-2-(4-methoxyphenyl)-3-hydroxy-5-[2-(N--methylamino)ethyl]-8-methyl-2,3-dihydro-1,5-benzothiazepin-4(5H)--one hydrobromide] it was “++ ((++) if the percentage inhibition is not less than 50%)”.
Take `CNCCN1C(=O)[C@H](O)[C@H](c2ccc(C)cc2)Sc2cc(C)ccc21` (single isomer, unassigned) [(-)-cis-2-(4-methylphenyl)-3-hydroxy-5-[2-(N-methylamino)ethyl]-8-methyl-2,3-dihydro-1,5-benzothiazepin-4(5H)-one hydrochloride hemihydrate]: the figures for the IC50 in the assay on Rat platelets [2] and with Human platelets were 0.1 µg/mL and 0.003 to 0.03 µg/mL, respectively.
